Biological target: T1, PyAly (Pyropia yezoensis, UniProt D2KX85, H125A/Y223A)
T1 construct: single-domain PL7 lyase; E. coli BL21(DE3), pET32a; tag cleaved; residues built 27-241
Experiment: X-ray crystal structure, […] A
Type: binding
Conditions: cocrystallized at 10:1 molar ratio; complete M5 at subsites -2 to +3

T1 sequence (D2KX85 entry or part of it H125A/Y223A): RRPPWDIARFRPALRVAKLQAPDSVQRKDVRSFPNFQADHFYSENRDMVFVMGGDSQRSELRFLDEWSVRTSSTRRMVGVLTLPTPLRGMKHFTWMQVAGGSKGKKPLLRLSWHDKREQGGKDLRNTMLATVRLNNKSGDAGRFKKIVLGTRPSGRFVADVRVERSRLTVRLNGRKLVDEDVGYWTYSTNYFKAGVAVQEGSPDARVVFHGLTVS

For `O=C(O)[C@H]1O[C@@H](O[C@H]2[C@H](O)[C@H](O)[C@H](O[C@H]3[C@H](O)[C@H](O)[C@H](O[C@H]4[C@H](O)[C@H](O)[C@H](O[C@H]5[C@H](O)[C@H](O)C(O)O[C@@H]5C(=O)O)O[C@@H]4C(=O)O)O[C@@H]3C(=O)O)O[C@@H]2C(=O)O)[C@@H](O)[C@@H](O)[C@@H]1O` (stereo partly shown) [M5], the “X-ray crystal structure, 1.70 A” value was “structure of the PyAly^H125A_Y223A-M5 complex presented the complete M5 substrate”.
